Reference: patent US20240180931A1, “CANNABINOIDS AND USES THEREOF IN TREATMENT OF A DISEASE” (TECHNION RESEARCH & DEVELOPMENT FOUNDATION LIMITED, priority 2021, published 2024)

What was measured:
[1] = test system: 1 cm^2 whole-thickness dorsal wounds; experiment: whole-thickness dorsal wound healing and regeneration in mice; format: in vivo; details: for wound healing by single cannabinoids, compared with WW strain: IP every second day, CBG 0.11 mg/kg, THC 3.7 mg/kg (FIGS. 10B-10C)
Method: To this end, 1 cm^2 whole-thickness dorsal wounds were inflicted on male or female 8-week-old wildtype (WT; C57BL/6J background) mice (n=at least 3 mice per group) and the wounded mice were treated with 5 mg/kg of each strain via intraperitoneal (IP) injection every two days (FIG. 9D). Dorsal wound coverage was measured by determining wound size (%) relative to the initial wound size.
Next, the inventors sought to understand whether any single cannabinoid component of the WW strain could potentiate the WW-induced phenotypes (FIG. 10A). For this, male and female mice (8-weeks-old) on WT (wild type; C57BL/6J) background were administered IP injections of cannabigerol (CBG; 0.11 mg/kg), tetrahydrocannabinol (THC; 3.7 mg/kg), cannabinol (CBN; 0.155 mg/kg), or cannabichromene (CBC; 0.0375 mg/kg), and dorsal wound was inflicted (n=at least 3 mice per group). Cannabinoid solutions are prepared by dissolving pure cannabinoids in 100% ethanol (EtOH) to a stock concentration of 100 mg/ml. Further dilution was achieved by preparing a 1:1:18 working solution of 100% EtOH:Cremophor:1×PBS. 100 μl was administered via IP injection to each mouse every second day starting from the day of wound infliction.

CREB = CREB phosphorylation in healing wounds in vivo, immunofluorescence; set-up: species or system mice
Excerpt: Thereafter, the inventors examined whether CREB is phosphorylated in healing wounds. The inventors performed full-thickness excisional wounds (as described above) and harvested wounds at 8 days post wound infliction.

[2] = test system: cAMP response element binding protein (CREB); experiment: CREB phosphorylation in HaCaT keratinocytes, immunofluorescence; format: cell-based, human; details: serum-free 16 hours, 30 minutes post-stimulation, WW 1 μg/ml, CBG 10 μM (FIG. 11A)
Method: (§1) In order to examine the underlying mechanism, the inventors next examined whether increased repair and proliferation is facilitated via the CAMP response element binding protein (CREB). First, the inventors utilized human keratinocyte cells (HaCaT). Cells were starved (serum-free) for 16 hours and then administered with Dimethyl sulfoxide (DMSO; carrier/solvent control), White Widow (WW) extract or cannabigerol (CBG). Next, the inventors performed immunofluorescence for activated phosphorylated CREB using specific antibodies.

[3] = test system: pCREB^S133 / ATF1 / PCNA in HaCaT cells; experiment: western blot analysis of treated HaCaT cells (pCREB, ATF1, PCNA); format: cell-based, human; details: for levels of active pCREB^S133 or ATF1 (western blot): HaCaT treated cells (FIG. 11B)
Method: as §1
In order to verify these findings, the inventors next performed western blot analysis of treated cells (as outlined above).

[4] = test system: NF-kappa-B (p65; NF-κB) transcription factor; experiment: TNF-α-induced NF-κB (p65) translocation in HaCaT keratinocytes, immunofluorescence; format: cell-based, Human; details: 30 minutes; for translocation of NF-kappa-B (p65) to the nucleus: serum starved 16 hours, extract 1 μg/ml, cannabinoids 10 μM (FIG. 4A)
Method: In order to examine the underlying mechanism, the inventors next examined whether improving health of the epidermis in psoriasis is dependent upon the NF-kappa-B (p65; NF-κB) transcription factor. NF-κB transcription factor is known to be active in psoriasis and high expression of its target genes leads to enhanced proliferation and inflammation (Goldminz et al., 2012). Human keratinocyte cells (HaCaT) were utilized. Cells were serum starved for 16 hours and then either non-treated (NTC) or administered with TNF-α along with either DMSO (Ctrl), Infinity (INF) extract, CBN, CBG, or THC at a concentration according to Table 2. Immunofluorescence was next performed for activated NF-κB using specific antibodies. The present data clearly indicate that, in response to TNF-α, the NF-κB (p65) transcription factor translocated to the nucleus.

[5] = test system: tail skin sebaceous glands (SGs); experiment: DBL-induced acne in mouse tail skin in vivo; set-up: species or system mice; details: DBL intradermal at tail base every second day for 10 days, treated from day 4; 5 mg/kg INF extract, 1.6 mg/kg CBN
[6] = test system: NF-kappa-B (p65; NF-κB) signaling; experiment: TNF-α-induced NF-κB (p65) translocation in Blimp1+ sebocytes, immunofluorescence; format: cell-based, mouse; details: serum starved 16 hours, TNF-α (FIGS. 8A-8B)
Method: In order to examine the underlying mechanism, the inventors assessed the effects of INF, THC and CBN in acne and whether it is mediated through downregulation of NF-kappa-B (p65; NF-κB) signaling. NFκB transcription factor is known to be active in acne and high expression of its target genes leads to enhanced proliferation and inflammation (Kang et al., 2005). The inventors utilized mouse primary sebaceous gland progenitors (Blimp1^+ sebocytes). Cells were serum starved for 16 hours and then either non-treated (NTC) or administered with TNF-α along with either DMSO (Ctrl), Infinity (INF) extract, CBN or THC (FIGS. 8A-8B). The inventors next performed immunofluorescence for activated NF-κB using specific antibodies. The present data clearly indicate that in response to TNF-α the NF-κB (p65) transcription factor translocates to the nucleus in Blimp1^+ sebocytes.

[7] = test system: 5%-Imiquimod (IMQ) model of psoriasis; experiment: topical 5%-Imiquimod (IMQ) model of psoriasis in mice; format: in vivo
Method: The therapeutic potentials of five different cannabis strains were determined (namely, Infinity (INF), White Widow (WW), Cannatonic (CNT), Dance Hall (DH), and Green Crack (GC)), utilizing an in vivo setting of skin pathology. For this aim, the topical 5%-Imiquimod (IMQ) model of psoriasis (FIGS. 1A-1B) was employed. In this model, 62.5 mg of IMQ cream is applied topically on depilated dorsal skins of mice (Fits et al., 2009) every second day concurrent with administration of extracts. Extracts were administered at 5 mg/kg dose via intraperitoneal (i.p.) injection.
Examining the cannabinoid constituents of INF, the inventors next applied IMQ and treated mice with either control (vehicle only), the 5 mg/kg INF extract, 1.6 mg/kg CBN, 0.1 mg/kg CBG, 3.7 mg/kg THC, or 0.04 mg/kg CBC (FIG. 3A).
Further, the recruitment of CD3^+ T cells to the epidermis was examined in 5% IMQ-treated skins.

[8] = IMQ-treated mice, 5 mg/kg INF extract, 3.7 mg/kg THC (FIGS. 3B-3D)

SMILES	epidermal invaginations in treated skins, 8 days post wounding ([1]; CBG 0.11 mg/kg IP every second day (FIG. 10D))	regenerated hair follicles in wounds, 18 days ([1]; CBG 0.11 mg/kg IP every second day (FIGS. 10E-10F))	wound healing by single cannabinoids, compared with WW strain [1]	localisation of activated p-CREB in treated wounds (CREB; CBG-treated wounds (FIG. 11F))	activated pCREB^S133 in the epidermis adjacent to the wound (CREB; full-thickness excisional wounds, 8 days post wound infliction (FIGS. 11D-11E))	CREB phosphorylation (pCREB^S133) and translocation to the nucleus [2]	levels of active pCREB^S133 or ATF1 (western blot) [3]	proliferation as indicated by the proliferation marker PCNA ([3]; HaCaT treated cells (FIG. 11C))	translocation of NF-kappa-B (p65) to the nucleus [4]	SG cell hyperproliferation [5]	sebum over-production [5]	translocation of NFκB (p65) to the nucleus [6]	inhibition of NF-κB (p65) translocation, comparison between treatments (% nuclear NF-κB positive cells) ([4]; 10 μM (FIG. 4B))	recruitment of CD3+ T cells to the epidermis ([7]; 5% IMQ-treated skins, harvested 8 days post administration (FIG. 5))	decreasing abnormal levels of proliferation [7, 8]	prevention of overgrowth of the epidermis [7, 8]
CCCCCc1cc(O)c(C/C=C(\C)CCC=C(C)C)c(O)c1 [CBG, cannabigerol]	considerably more epidermal invaginations	striking number of regenerated hair follicles	healed comparably to the WW strain	co-expressed with proliferative markers	dramatic increase	highly phosphorylated	high phosphorylation of CREB and ATF	increased proliferation	had no effect	–	–	–	–	–	–	–
CCCCCc1cc(O)c2c(c1)OC(C)(C)c1ccc(C)cc1-2 [CBN, cannabinol]	–	–	–	–	–	–	only minimal (if any) effect	–	strongly inhibited	prevented	prevented	strongly inhibited	best results of inhibition	substantially reduced	–	–
CCCCCc1cc(O)c2c(c1)OC(C)(CCC=C(C)C)C=C2 (centres unmarked) [CBC, cannabichromene]	–	–	–	–	–	–	only minimal (if any) effect	–	–	–	–	–	–	–	–	–
CCCCCc1cc(O)c2c(c1)OC(C)(C)[C@@H]1CCC(C)=C[C@@H]21 [THC, tetrahydrocannabinol]	–	–	to some extent	–	–	–	only minimal (if any) effect	–	strongly inhibited	–	–	strongly inhibited	–	–	comparable	comparable
